# Results taken from patent publication US20120277180A1, “Cofactors and Methods for Use for Individuals” (VITAPATH GENETICS, INC, priority 2009, published 2012).
# Entries after “also recorded” stand apart in the source; their conditions may differ. Read-outs that look alike come from different tables or passages of the source.
# How the values were obtained:
# [1] = system: fol3Δ::KanMX MET13 haploid yeast; format: cell-based, S. cerevisiae; conditions: for Effect of folinic acid supplementation on growth: fol3Δ MET13 cells
# [2] = molecular target: T1, human MTHFR (Homo sapiens, UniProt P42898); assay: In vivo yeast complementation growth assay: MTHFR alleles in fol3 met13 haploid yeast, growth without methionine with titrated folinic acid; format: cell-based; conditions: folinic acid above 50 ug/ml; fol3 met13 cells
# T1 construct: expressed in transfected cells; host or cells: Saccharomyces cerevisiae fol3Δ::KanMX met13Δ::KanMX (S288c background), GAL1 promoter
# T1 sequence (P42898 whole entry): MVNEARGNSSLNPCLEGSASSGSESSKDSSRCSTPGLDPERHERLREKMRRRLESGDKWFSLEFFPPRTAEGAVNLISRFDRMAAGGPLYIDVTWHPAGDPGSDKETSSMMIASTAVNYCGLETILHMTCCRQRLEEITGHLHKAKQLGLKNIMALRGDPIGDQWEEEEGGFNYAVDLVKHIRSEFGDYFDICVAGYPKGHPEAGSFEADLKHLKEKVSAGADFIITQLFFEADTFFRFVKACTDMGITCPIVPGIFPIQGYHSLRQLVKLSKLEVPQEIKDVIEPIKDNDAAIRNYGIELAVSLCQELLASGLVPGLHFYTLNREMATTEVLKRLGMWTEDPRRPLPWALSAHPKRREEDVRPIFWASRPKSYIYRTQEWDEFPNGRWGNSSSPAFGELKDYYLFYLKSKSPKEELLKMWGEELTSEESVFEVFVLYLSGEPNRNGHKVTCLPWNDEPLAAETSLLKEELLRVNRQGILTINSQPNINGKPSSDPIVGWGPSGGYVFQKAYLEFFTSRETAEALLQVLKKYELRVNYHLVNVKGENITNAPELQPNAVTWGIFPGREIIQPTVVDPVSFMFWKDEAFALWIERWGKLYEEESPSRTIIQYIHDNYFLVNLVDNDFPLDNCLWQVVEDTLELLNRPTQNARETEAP
# [3] = upper level of intake considered safe for adults; cited from earlier work
# [4] = system: human MTHFR; assay: In vivo yeast complementation growth assay: MTHFR alleles in fol3 met13 haploid yeast, growth without methionine with titrated folinic acid; format: cell-based; conditions: for Functional impact / folate-responsiveness of MTHFR allele (growth in the absence of methionine): over a range of folinic acid concentrations, relative to the major allele; for Interaction of substitutions in compound (double-substitution) alleles with A222V: growth at 50 and 25 ug/ml folinic acid
# [5] = system: human MTHFR; assay: Thermolability of MTHFR variants (heat treatment at 55° C. before enzyme assay); format: biochemical
# Procedure: MTHFR enzyme activity assay. The assay, which measures the reverse reaction of that catalyzed by MTHFR under physiological conditions, was as described (Shan et al, 1999, supra) with the following modifications: Yeast extracts were created by bead lysis of 40 CD595 cell equivalents (fol3Δ met13Δ cells supplemented with folinic acid and methionine as above) in 350 ul of Lysis Buffer (100 mM Sucrose, 50 mM KHPO4 (pH 6.3), protease inhibitor cocktail). Extracts were clarified by a brief microcentrifugation, and 10-200 ug of extract used to determine the linear range of activity. Radiolabeled substrate (5-[^14C]MeTHF) was from GE Healthcare Life Sciences. For heat treatment, the reaction mixes without 5-[^14C]MeTHF were heated to 55° C. for the indicated times at which point 5-[^14C]MeTHF was added back and the reaction proceeded.
# In addition to measuring specific activity, variants were tested for thermolability (a measure of enzyme stability) by heat treatment at 55° C. for various times.
# [6] = system: human CBS; assay: Yeast complementation assay for CBS as a function of pyridoxine (cys4, sno/snz sextuple-delete strain); format: cell-based; conditions: qualitative growth on solid media
molecule,measurement,setting,value
5-formyl-tetrahydrofolate [folinic acid],Folinic acid supplementation compared to growth of FOL3 cells,[1]; fol3Δ cells vs FOL3 cells,did not completely compensate for lack of endogenous folate biosynthesis
same,Effect of folinic acid supplementation on growth,[1]; folinic acid above 50 ug/ml,did not confer any significant growth advantage
same,Effect of folinic acid supplementation on growth,[1]; folinic acid below 50 ug/ml,growth clearly correlated with available folinic acid in the medium
same,Effect of folinic acid supplementation on growth of cells expressing the major human MTHFR allele,[2],did not confer a significant growth advantage
C[N+](C)(C)CCO [Choline],UL (Upper Limit),[3],3500 mg
O=C(O)c1cccnc1 [Niacin],UL (Upper Limit),[3],35 mg
O=C1O[C@H]([C@@H](O)CO)C(O)=C1O [Vitamin C],UL (Upper Limit),[3],2000 mg
"A222V: common functionally impaired human MTHFR variant, catalytic domain substitution A222V",Functional impact / folate-responsiveness of MTHFR allele (growth in the absence of methionine),[4],folate-remedial behavior
same,Thermolability,[5],lost nearly all activity
"D223N: novel low-frequency human MTHFR variant, catalytic domain substitution D223N",Functional impact / folate-responsiveness of MTHFR allele (growth in the absence of methionine),[4],folate-remedial activity similar to A222V (though less severely impaired); also recorded: folate-remedial behavior
same,Thermolability,[5],increased thermolability
"D291N: low-frequency human MTHFR variant, catalytic domain substitution D291N",Interaction of substitutions in compound (double-substitution) alleles with A222V,[4],synergized when combined with A222V
same,Functional impact / folate-responsiveness of MTHFR allele (growth in the absence of methionine),[4],folate-remedial behavior
"H213R: low-frequency human MTHFR variant, catalytic domain substitution H213R",Functional impact / folate-responsiveness of MTHFR allele (growth in the absence of methionine),[4],benign
M110I A222V: doubly-substituted compound human MTHFR allele,Interaction of substitutions in compound (double-substitution) alleles with A222V,[4],functioned more poorly than the sum of the individual alleles
"M110I: low-frequency human MTHFR variant, catalytic domain substitution M110I",MTHFR function (growth) relative to the major allele,[4]; 50 ug/ml folinic acid,nearly indistinguishable from the major allele
same,Interaction of substitutions in compound (double-substitution) alleles with A222V,[4],synergized when combined with A222V
same,Functional impact / folate-responsiveness of MTHFR allele (growth in the absence of methionine),[4],folate-remedial behavior
same,Functional impact / folate-responsiveness of MTHFR allele (growth in the absence of methionine),[4]; listed as MilOl,folate-remedial activity similar to A222V (though less severely impaired)
"R134C: low-frequency human MTHFR variant, catalytic domain substitution R134C",Functional impact / folate-responsiveness of MTHFR allele (growth in the absence of methionine),[4],"severely impaired at all folate concentrations; also recorded: responsive, but not a remedial allele; also recorded: nearly loss-of-function"
"R519C: low-frequency human MTHFR variant, regulatory domain substitution R519C",Functional impact / folate-responsiveness of MTHFR allele (growth in the absence of methionine),[4],benign
Vitamin B-6,UL (Upper Limit),[3],100 mg
"major allele: most common human MTHFR allele in the population, expressed in yeast",Functional impact / folate-responsiveness of MTHFR allele (growth in the absence of methionine),[4],did not completely compensate for loss of Met13p
"1278T: homocystinuria allele of human CBS, vitamin B6-responsive (protein, UniProt P35520 1-551, looked up, variant I278T) Cystathionine beta-synthase: MPSETPQAEVGPTGCPHRSGPHSAKGSLEKGSPEDKEAKEPLWIRPDAPSRCTWQLGRPASESPHHHTAPAKSPKILPDILKKIGDTPMVRINKIGKKFGLKCELLAKCEFFNAGGSVKDRISLRMIEDAERDGTLKPGDTIIEPTSGNTGIGLALAAAVRGYRCIIVMPEKMSSEKVDVLRALGAEIVRTPTNARFDSPESHVGVAWRLKNEIPNSHILDQYRNASNPLAHYDTTADEILQQCDGKLDMLVASVGTGGTITGIARKLKEKCPGCRITGVDPEGSILAEPEELNQTEQTTYEVEGIGYDFIPTVLDRTVVDKWFKSNDEEAFTFARMLIAQEGLLCGGSAGSTVAVAVKAAQELQEGQRCVVILPDSVRNYMTKFLSDRWMLQKGFLKEEDLTEKKPWWWHLRVQELGLSAPLTVLPTITCGHTIEILREKGFDQAPVVDEAGVILGMVTLGNMLSSLLAGKVQPSDQVGKVIYKQFKQIRLTDTLGRLSHILEMDHFALVVHEQIQYHSTGKSSQRQMVFGVVTAIDLLNFVAAQERDQK",Rescue of cys4 yeast growth defect as a function of pyridoxine supplementation,[6],more sensitive than the wild-type enzyme to limiting B6 levels
"R266K: homocystinuria allele of human CBS, vitamin B6-responsive (protein, UniProt P35520 1-551, looked up, variant R266K) Cystathionine beta-synthase: MPSETPQAEVGPTGCPHRSGPHSAKGSLEKGSPEDKEAKEPLWIRPDAPSRCTWQLGRPASESPHHHTAPAKSPKILPDILKKIGDTPMVRINKIGKKFGLKCELLAKCEFFNAGGSVKDRISLRMIEDAERDGTLKPGDTIIEPTSGNTGIGLALAAAVRGYRCIIVMPEKMSSEKVDVLRALGAEIVRTPTNARFDSPESHVGVAWRLKNEIPNSHILDQYRNASNPLAHYDTTADEILQQCDGKLDMLVASVGTGGTITGIAKKLKEKCPGCRIIGVDPEGSILAEPEELNQTEQTTYEVEGIGYDFIPTVLDRTVVDKWFKSNDEEAFTFARMLIAQEGLLCGGSAGSTVAVAVKAAQELQEGQRCVVILPDSVRNYMTKFLSDRWMLQKGFLKEEDLTEKKPWWWHLRVQELGLSAPLTVLPTITCGHTIEILREKGFDQAPVVDEAGVILGMVTLGNMLSSLLAGKVQPSDQVGKVIYKQFKQIRLTDTLGRLSHILEMDHFALVVHEQIQYHSTGKSSQRQMVFGVVTAIDLLNFVAAQERDQK",Rescue of cys4 yeast growth defect as a function of pyridoxine supplementation,[6],more sensitive than the wild-type enzyme to limiting B6 levels
